Source: a melting point compilation (Tetko et al.; mined from patent text by program, amines drawn as free bases though some values may be those of a salt)

Compound	melting point [°C]
CCCCCCCCCCCCCCC(=O)c1ccc2cc(O)c(O)cc2c1	133 to 134
CC(=O)OCNC(=O)c1cc(C)c(C(c2cc(F)ccc2F)S(=O)(=O)c2ccc(F)cc2)cn1 (stereo not given)	111 to 113
O=C(O)Cc1c(-c2ccccc2)c(=O)[nH]c2cc(Cl)ccc12	175
O=S(=O)(c1ccc(C(F)(F)F)cc1)N1CCCC1c1ccc(F)cc1 (racemic)	85
COc1cc2ccc(C)cc2c(C(C)C)c1OC	62 to 63
COc1ccc2c(c1)sc1ncc(C=O)n12	168 to 169
OCCn1c(NC2CCNCC2)nc2cccnc21	157
O=C(Nc1cccc(S(=O)(=O)C(F)(F)F)c1)c1ccc2ccccc2c1O	194 to 195
CCCc1c(OCCCCCCc2cccc(OC(C)=O)c2OC(C)=O)ccc(C(=O)O)c1O	120 to 122
CC1(C)Oc2cc(Br)sc2[C@@H](N2CCCCC2=O)[C@@H]1OCc1ccccc1 (relative stereo)	146 to 147
CCc1ccc(OCCCCCN2CCN(c3nccs3)CC2)cc1	125 to 127
CCCCOc1cc(-c2cc3ccccc3[nH]2)ccc1OCC	139
CCCCNc1ccccc1S(=O)(=O)NC(=O)n1nc(SC)n(C)c1=O	120
COc1c(NC(=O)Nc2ccc(-c3ccc(CN4CCOCC4)nc3)c3ccccc23)cc(C(C)(C)C)cc1Nc1c(N(C)C)c(=O)c1=O	176 to 179
CCOP(=O)(Cc1ccc(C(=S)N2CCCc3ccccc32)cc1)OCC	96 to 97
CCOc1ccc2c(=O)c(C(=O)O)cn(CCO)c2n1	220
O=C(O)Cc1ccc(-c2ccc(F)cc2F)c(F)c1	145 to 147
CC(=O)OCC(=O)Nc1nc(CN2CCC(c3c[nH]c4ccccc34)CC2)cs1	140 to 144
Cc1noc(=O)c2ccc(NC(=O)C(=O)CC3(c4cccc(C(F)(F)F)c4)CC3)cc12	136 to 139
O=C1Cc2ccccc2N1c1ccsc1	62 to 67
CN1Cc2ccccc2C(=O)c2cc(CC(=O)O)cc(Br)c21	164 to 167
COc1ccc(N2CCN(c3c(C)c(C)c4c(c3C)C(O)(c3ccc(OC(F)(F)F)cc3)C(C)(C)O4)CC2)cc1 (stereo not given)	175 to 176
Nc1cc(O)nc(SCc2cccc(F)c2F)n1	218 to 221
COC(=O)c1ccc(Nc2ccn(-c3ccccc3)n2)cc1	160 to 161
CCOC(=O)OCC(F)(F)Cn1nc(C)c(-c2ccc3c(c2)NC(=O)CO3)c1-c1ccc(F)cc1	142

Compound	melting point [°C]
Cc1nc(NCCSCc2csc(CN(C)C)n2)[nH]c(=O)c1Cc1cccnc1	130 to 131
CC(C)c1nc2c([nH]1)c(=O)[nH]c(=O)n2Cc1cccc(Cl)c1	319 to 321
CCOCc1nc2c(N)nc3cccnc3c2n1CCCCN(OC)C(C)=O	180 to 181
O=C(O)c1cc(-n2c(-c3ccccc3)cc3c2CCCC3)cc(Cl)c1O	223 to 225
S=C(Nc1ccc(Cl)c(Cl)c1)NC1CCCCC1	159 to 162
COc1ccc(NN=C(Sc2ccc(S(C)(=O)=O)cc2)C(C)=O)cc1	145 to 153
CO[C@@H]1[C@@H](OC)[C@H](C)O[C@@H](OC(=O)Nc2ccc(-c3ccnc(-c4ccc(C(F)(F)F)cc4)n3)cc2)[C@@H]1OC	176 to 179
COc1ccc(F)c2c1OC(CN1CC(C)(C)Cn3c1nc(-c1ccncn1)cc3=O)CC2 (racemic)	136 to 138
CCCCCCCCCCCCCCCCCCOc1cccc(C(=O)C(=O)OC)c1	50 to 52
COC(=O)CCC(N=O)C(C)(C)Cl (stereo not given)	90 to 91
CN(c1cccc2cc(C(N)=O)[nH]c12)S(=O)(=O)c1cccs1	244 to 245
CN(CS(C)(=O)=O)C(=O)Nc1ccc(Cl)c(Cl)c1	159
COC(=O)c1ccc2c(c1C)SCCC2(C)C	63
CCC(CC)(CCCCS(N)(=O)=O)COc1nn2ncnc2cc1C	132 to 133
CC(C)(C)OC(=O)N1C(=O)[C@H](O)[C@@H]1C=Cc1ccccc1	132 to 133
Cc1nc(N)nc(N)c1N1CCN(c2ccc(C(=O)NCC(=O)O)cc2)CC1	> 310
C=C(CCl)COc1ccc(C(=O)OC)cc1CS(=O)(=O)c1ccccc1	92 to 93
Cc1cc(-c2ccc(Cl)c(C)c2)nc(-c2cccc(-c3cccc(S(N)(=O)=O)c3)c2)n1	201
O=C1c2ccccc2OS(=O)N1SC(Cl)(Cl)Cl (stereo not given)	65 to 67
CNc1nc(-c2ccc(SC)cc2)n(-c2ccc(C)cc2)c(=O)c1C#N	268 to 271
Nc1n[nH]c2c(F)cccc12	170
C=CCCn1cnc2c1c(=O)n(C)c(=O)n2C	110
CCC(=O)c1cc(C2(c3cccc(Br)c3)N=C(N)N(C)C2=O)cn1CC (stereo not given)	100 to 102
COc1ccc2c3c1c(C)c(-c1ccc(O)cc1)n3CC(CCO)O2 (stereo not given)	190
CCOC(=O)C(=NOC(C)C)c1csc(NC(c2ccccc2)(c2ccccc2)c2ccccc2)n1	182
